Laboratory results: PMC11586995, “Screening and Characterization of Sialic Acid-Binding Variable Lymphocyte Receptors from Hagfish” (BioTech, 2024)
Entries after “also recorded” stand apart in the source; their conditions may differ.

The molecules below were run on ccombodies 2D8, 5G11, 6D2, and 4A1 (assay: Competitive ELISA of monosaccharide haptens against ccombody binding to BSA-CC-Neu5Ac). Conditions: hapten 50 to 0.39 mM, all four candidates.
Set-up: species or system Eptatretus burgeri
Protocol: ELISA was carried out according to the method of Lazarte et al., with some modifications. Screening for sialic acid-binding ccombodies was carried out by coating 100 μL of a 300 ng/well BSA-CC-Neu5Ac glycoconjugate onto high-binding 96-well ELISA plates (Corning, Glendale, AZ, USA), along with BSA only (without CC) as a negative control. Plates were left standing overnight at 4 °C, after which they were washed three times with 1X TBST (10 mM Tris-HCl, 150 mM NaCl, and 0.5% Tween) to remove unbound antigen. Plates were blocked for 30 min with blocking buffer comprising 5% skimmed milk in 1× TBST at room temperature, then washed once with 1X TBST. Ccombody supernatants from HEK293F cells were then added onto the plates, incubated for 1 h 30 min, followed by washing three times with 1X TBST. Antigen bound ccombodies were detected with mouse anti-VLRB antibody (11G5) in blocking buffer by incubation for 1 h, followed by washing three times to remove unbound 11G5. Finally, bound 11G5 antibodies were detected by incubating for 1 h with HRP-conjugated goat anti-mouse IgG (1:5000 v/v in blocking buffer), then washed four times. Binding was quantified by the addition of 100 μL developing buffer composed of 42 mM 3,3′,5,5′-tetramethylbenzidine and 1% H2O2, then color development for 30 min at room temperature. The reaction was stopped by adding 50 μL of 2 M H2SO4. The absorbance was then read at 450 nm using an xMark (BIO-RAD, Hercules, CA USA) microplate reader. Competitive inhibition was determined through ELISA as presented earlier, with some modifications. Optimal subsaturating dilutions of ccombody-culture supernatants were used based on the preliminary antibody titration data. Competitive inhibitors, two-fold serially diluted (50 to 0.39 mM), were mixed with a constant amount of ccombody supernatant diluted in 5% skimmed milk in 1X TBST, then incubated for 1 h at room temperature. Next, 100 μL of the mixture was subsequently transferred into another 96-well ELISA plate containing a constant amount of antigen (500 ng/well) which was pre-blocked with 5% skimmed milk in 1X TBST. Antigen-bound ccombodies were detected by 11G5 and HRP-conjugated goat anti-mouse IgG. The normalized and background-corrected OD450 values were plotted against the ligand concentration, and the half-maximal inhibitory concentration (IC50) was computed by curve fitting using the Four Parameter Logistic (4PL) Curve Calculator [27]. Values are expressed as the mean of three determinations.

| SMILES | Inhibition of ccombody binding by free hapten |
| --- | --- |
| CC(=O)N[C@H]1[C@H]([C@H](O)[C@H](O)CO)OC(O)(C(=O)O)C[C@@H]1O (stereo partly drawn) [Neu5Ac, N-acetylneuraminic acid] | strong inhibition; also recorded: strong inhibitory effects |
| OC[C@H]1OC(O)[C@@H](O)[C@@H](O)[C@@H]1O (stereo partly drawn) [mannose] | No significant inhibition |
| O=C[C@H](O)[C@@H](O)[C@@H](O)[C@H](O)CO [galactose] | No significant inhibition |
| CC(=O)N[C@@H]1[C@@H](O)[C@@H](O)[C@@H](CO)O[C@@H]1O [N-acetylgalactosamine] | No significant inhibition |
| CC(=O)N[C@@H]1[C@@H](O)[C@H](O)[C@@H](CO)O[C@H]1O [N-acetylglucosamine] | No significant inhibition |
| OC[C@H]1OC(O)[C@H](O)[C@@H](O)[C@@H]1O (stereo partly drawn) [glucose] | No significant inhibition |
